Measurements from patent US20190083462A1, “PREVENTION OF NSAID ENTEROPATHY WITH MICROBIOTA-DERIVED TRYPTOPHAN-METABOLITE” (THE TEXAS A&M UNIVERSITY SYSTEM, priority 2016, published 2019).

System: fecal tryptophan metabolites
Assay: Fecal tryptophan metabolites by LC-MS
Format: in vivo, mice
Conditions: for Magnitude of change in fecal concentration between Days 0 and 7: group effect ↑
Source text: Eight- to 10-week-old specific-pathogen-free C57BL/6J mice were purchased and allowed to acclimate for 2 weeks. Mice were fed standardized laboratory rodent diet and sterile water ad libitum. Mice were randomly divided into the following 4 groups (n=5 mice/group): 1) NSAID (indomethacin); 2) indole; 3) NSAID+indole; and, 4) untreated controls. Mice were then rehoused on the basis of treatment group assignment, with 5 animals/group-cage. To induce NSAID enteropathy, mice in group 1 were gavaged once daily with indomethacin (5 mg/kg; for 7 days; Sigma Aldrich, St. Louis, Mo.) dissolved in dimethylysulfoxide (DMSO) (Sigma Aldrich, St. Louis, Mo.) and further diluted in phosphate buffered saline (PBS). Mice in group 2 received indole by gavage (20 mg/kg; once daily for 7 days; Sigma Aldrich, St. Louis, Mo.) dissolved in sterile water warmed to 55° C. Mice in group 3 received indole co-administered with indomethacin by gavage at the dosages described above. All mice were gavaged with equal volumes (200 μL) and equal concentrations of DMSO (0.001%).
Feces were collected daily by placing individual animals in sterile plastic cups that were RNase- and DNase-free until they passed feces. The mice were immediately returned to their home cages and the feces immediately flash frozen at −80° C. All animals were euthanized via CO2 asphyxiation on day 8 (i.e., after 7 days of treatment). The small intestine was harvested, opened longitudinally, rinsed with ice-cold PBS, and the distal ⅓ of the intestinal mucosa was scraped for tissue gene expression analysis. The remaining small intestine was fixed in 4% paraformaldehyde, Swiss-rolled, paraffin-embedded, and stained with hematoxylin and eosin. The spleen and mesenteric lymph nodes (MLN) were harvested, and immediately placed in ice cold RPMI-1640-c+10% fetal calf serum (FCS: Life Technologies, Carlsbad, Calif.), homogenized, and prepared as a single cell suspension for flow cytometric analysis as previously described (Wang N, Strugnell R, Wijburg O, Brodnicki T. Measuring bacterial load and immune responses in mice infected with Listeria monocytogenes. Journal of Visualized Experiments: JoVE 2011).
Metabolites from the fecal contents were extracted using a solvent-based method as previously described (Sridharan G V, Choi K, Klemashevich C, Wu C, Prabakaran D, Pan L B, Steinmeyer S, Mueller C, Yousofshahi M, Alaniz R C, et al. Prediction and quantification of bioactive microbiota metabolites in the mouse gut. Nature Communications 2014; 5:5492). Briefly, fecal pellets were homogenized using a homogenizer (Omni International) with equal volume of cold methanol and half volume of chloroform. The samples were then centrifuged at 10,000 g at 4° C. (Thermo Fisher Scientific) for 10 min. Supernatant was passed through a 70-μm sterile nylon cell strainer (Falcon) and 0.6 ml of ice cold water was added. The samples were vortex and centrifuged again at 10,000 g for 5 minutes. The upper phase and lower phase were collected and 400 μl of upper phase was dried to a pellet using a vacufuge (Eppendorf, Hauppauge, N.Y.), and then reconstituted in 50 μl of methanol/water (1:1, v/v). The samples were stored at −80° C. until analysis. Tryptophan metabolites in the samples were detected and quantified on a triple quadrupole linear ion trap mass spectrometer (3200 QTRAP, AB SCIEX, Foster City, Calif.) coupled to a binary pump HPLC (Prominence LC-20, Shimazu, Concord, Ontario, Canada).

COc1ccc2c(c1)c(CC(=O)O)c(C)n2C(=O)c1ccc(Cl)cc1 [NSAID, indomethacin]
Magnitude of change in fecal concentration between Days 0 and 7 (5-Hydroxyindole): 27.2 | Magnitude of change in fecal concentration between Days 0 and 7 (5-Hydroxytryptamine): 13.9 | Magnitude of change in fecal concentration between Days 0 and 7 (Indole): 6.7 | Magnitude of change in fecal concentration between Days 0 and 7 (Serotonin): 1.6 | Magnitude of change in fecal concentration between Days 0 and 7 (Tyramine): 6.7 | fecal indole concentrations relative to controls (feces): significantly more indole | tyramine fecal concentration by treatment group (feces): significant increase
